Assay results: US20260356851A1, “TRICYCLIC COMPOUNDS AND USES THEREOF” (HUTCHMED LIMITED, priority 2023, published 2026)

What was measured:
Assay type in all cases: cell-based
[1] = target: T1, pERK1/2 (Thr202/Tyr204), PANC-1 (KRAS G121D) (Homo sapiens, UniProt P01116, G12D); assay: Assay of intracellular pERK1/2 (Thr202/Tyr204) phosphorylation in PANC-1 cells (KRAS G12D); conditions: pERK1/2, 2 days, read-out: PANC-1 (KRAS G12D) IC50
T1 construct: pERK1/2 HTRF read-out
In short: (§1)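 Cells (10000-12000/well) exposed to 3-fold compound dilutions for 2 days at 37 °C, then lysed; pERK1/2 (Thr202/Tyr204) measured by HTRF with d2 and cryptate antibodies, 665/615 nm ratio.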

[2] = target: T2, pERK1/2 (Thr202/Tyr204), NCI-1H441 (KRAS G12V) (Homo sapiens, UniProt P01116, G12V); assay: Assay of intracellular pERK1/2 (Thr202/Tyr204) phosphorylation in NCI-H441 cells (KRAS G12V); conditions: pERK1/2, 2 days, read-out: NCI-H441 (KRAS G12V) IC50
T2 construct: pERK1/2 HTRF read-out
T2 sequence (P01116 1-188 isoform P01116-2 G12V): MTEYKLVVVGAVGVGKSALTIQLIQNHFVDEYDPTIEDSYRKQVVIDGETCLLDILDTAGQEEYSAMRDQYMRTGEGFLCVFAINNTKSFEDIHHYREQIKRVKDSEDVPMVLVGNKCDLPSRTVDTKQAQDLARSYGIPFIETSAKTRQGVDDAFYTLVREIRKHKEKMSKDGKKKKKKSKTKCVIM
In short: as §1

[3] = target: T3, pERK1/2 (Thr202/Tyr204), NCI-1H358 (KRAS G12C) (Homo sapiens, UniProt P01116, G12C); assay: Assay of intracellular pERK1/2 (Thr202/Tyr204) phosphorylation in NCI-H358 cells (KRAS G12C); conditions: pERK1/2, 2 days, read-out: NCI-H358 (KRAS G12C) IC50
T3 construct: pERK1/2 HTRF read-out
T3 sequence (P01116 1-188 isoform P01116-2 G12C): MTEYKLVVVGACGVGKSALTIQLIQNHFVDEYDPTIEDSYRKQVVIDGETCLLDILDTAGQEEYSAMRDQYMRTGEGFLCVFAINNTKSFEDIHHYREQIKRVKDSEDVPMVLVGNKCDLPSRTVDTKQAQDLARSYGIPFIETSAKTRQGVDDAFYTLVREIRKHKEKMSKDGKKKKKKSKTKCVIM
In short: as §1

T1 sequence (P01116 1-188 isoform P01116-2 G12D): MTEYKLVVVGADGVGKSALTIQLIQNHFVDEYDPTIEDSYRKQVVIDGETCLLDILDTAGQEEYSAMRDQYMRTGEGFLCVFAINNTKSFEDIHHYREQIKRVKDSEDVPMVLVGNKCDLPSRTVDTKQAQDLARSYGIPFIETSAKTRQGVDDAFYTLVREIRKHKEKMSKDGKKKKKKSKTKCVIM

| IC50 [1] | IC50 [2] | IC50 [3] | Compound |
| --- | --- | --- | --- |
| > 100 nM | > 100 nM | > 100 nM | Cc1cc2[nH]ncc2c(-c2nc3c4c(nc(OC[C@@]56CCCN5C[C@H](F)C6)nc4c2F)N([C@@H](C)c2cccnc2N)[C@@H](C2CC2)CO3)c1C(F)(F)F [Compound 391] |
| > 100 nM | > 100 nM | > 100 nM | Cc1cc2[nH]ncc2c(-c2nc3c4c(nc(OC[C@@]56CCCN5C[C@H](F)C6)nc4c2F)N(C(C)c2cccnc2N)[C@@H]2COCC[C@H]2O3)c1C(F)(F)F (stereo partly drawn) [Compound 392] |
| > 100 nM | > 100 nM | > 100 nM | Cc1cc2[nH]ncc2c(-c2nc3c4c(nc(OC[C@@]56CCCN5C[C@H](F)C6)nc4c2F)N(C(C)c2cccnc2N)[C@H]2CCC[C@@H]2O3)c1C(F)(F)F (stereo partly drawn) [Compound 393] |
| 36 nM | 2 nM | 1 nM | Cc1c(C(F)(F)F)c(-c2nc3c4c(nc(OCC5(CN(C)CCO)CC5)nc4c2F)N(C(C)c2cccnc2N)[C@@H](C)CO3)c2cn[nH]c2c1F (stereo partly drawn) [Compound 394, (*)2-(((1-((((9S)-10-(1-(2-aminopyridin-3-yl)ethyl)-4-fluoro-5-(7-fluoro-6-methyl-5-(trifluoromethyl)-1H-indazol-4-yl)-9-methyl-9,10-dihydro-8H-7-oxa-1,3,6,10-tetraazacyclohepta[de]naphthalen-2-yl)oxy)methyl)cyclopropyl)methyl)(methyl)amino)ethan-1-ol] |
| 21 nM | 4 nM | 1 nM | Cc1c(C(F)(F)F)c(-c2nc3c4c(nc(OCC5(CN(C)C6CC6)CC5)nc4c2F)N(C(C)c2cccnc2N)[C@@H](C)CO3)c2cn[nH]c2c1F (stereo partly drawn) [Compound 395] |
| 6 nM | 1 nM | < 0.457 nM | Cc1c(C(F)(F)F)c(-c2nc3c4c(nc(OCC5(CN(C)C)CC5)nc4c2F)N(C(C)c2cccnc2N)[C@@H](C)CO3)c2cn[nH]c2c1F (stereo partly drawn) [Compound 396] |
| 0.7 nM | 0.8 nM | < 0.457 nM | CCc1c(F)ccc2cc(O)cc(-c3nc4c5c(nc(OCC6(CN(C)C7CC7)CC6)nc5c3F)N(C(C)c3cccnc3N)[C@@H](C)CO4)c12 (stereo partly drawn) [Compound 397] |
| 264 nM | 472 nM | 212 nM | CC(c1cccnc1N)N1c2nc(OC[C@@]34CCCN3C[C@H](F)C4)nc3c(F)c(-c4c5ccccc5cc5[nH]ncc45)nc(c23)O[C@H]2CCC[C@@H]21 (stereo partly drawn) [Compound 398] |
| 403 nM | 57 nM | 65 nM | C[C@H](c1cccnc1N)N1c2nc(OC[C@@]34CCCN3C[C@H](F)C4)nc3c(F)c(-c4c5ccccc5cc5[nH]ncc45)nc(c23)O[C@@H]2CCC[C@@H]21 [Compound 399] |
| 831 nM | > 1000 nM | 676 nM | C[C@@H](c1cccnc1N)N1c2nc(OC[C@@]34CCCN3C[C@H](F)C4)nc3c(F)c(-c4c5ccccc5cc5[nH]ncc45)nc(c23)O[C@@H]2CCC[C@@H]21 [Compound 400] |
| 0.3 nM | 0.4 nM | 0.3 nM | Cc1n[nH]c2cc3ccccc3c(-c3nc4c5c(nc(OC[C@@]67CCCN6C[C@H](F)C7)nc5c3F)N(C(C)c3cccnc3N)[C@@H](C)CO4)c12 (stereo partly drawn) [Compound 401] |
| 0.4 nM | 0.6 nM | 0.4 nM | Cc1n[nH]c2cc3ccccc3c(-c3cc4nc(OC[C@@]56CCCN5C[C@H](F)C6)nc5c4c(n3)OC[C@H](C)N5C(C)c3cccnc3N)c12 (stereo partly drawn) [Compound 402] |
| 997 nM | 308 nM | 112 nM | CC(c1cccnc1N)N1c2nc(OC[C@@]34CCCN3C[C@H](F)C4)nc3cc(-c4c5ccccc5cc5[nH]nc(C6CC6)c45)nc(c23)OC[C@@H]1C (stereo partly drawn) [Compound 403] |
